Reference: patent US8772500B2, “TRPV3 modulators” (AbbVie Inc., priority 2011, dated 2014)
Like-named read-outs stand apart in the source and are kept apart here.

Key:
[1] = molecular target: T1, human TRPV3 (Homo sapiens, UniProt Q8NET8); assay: In vitro antagonism of recombinant human TRPV3 activation (FLIPR Tetra calcium assay, 2-APB as agonist); type: cell-based; conditions: HEK293 cells stably expressing human TRPV3, 2-APB 80 μM
T1 construct: expressed in transfected cells
T1 sequence (Q8NET8 1-790): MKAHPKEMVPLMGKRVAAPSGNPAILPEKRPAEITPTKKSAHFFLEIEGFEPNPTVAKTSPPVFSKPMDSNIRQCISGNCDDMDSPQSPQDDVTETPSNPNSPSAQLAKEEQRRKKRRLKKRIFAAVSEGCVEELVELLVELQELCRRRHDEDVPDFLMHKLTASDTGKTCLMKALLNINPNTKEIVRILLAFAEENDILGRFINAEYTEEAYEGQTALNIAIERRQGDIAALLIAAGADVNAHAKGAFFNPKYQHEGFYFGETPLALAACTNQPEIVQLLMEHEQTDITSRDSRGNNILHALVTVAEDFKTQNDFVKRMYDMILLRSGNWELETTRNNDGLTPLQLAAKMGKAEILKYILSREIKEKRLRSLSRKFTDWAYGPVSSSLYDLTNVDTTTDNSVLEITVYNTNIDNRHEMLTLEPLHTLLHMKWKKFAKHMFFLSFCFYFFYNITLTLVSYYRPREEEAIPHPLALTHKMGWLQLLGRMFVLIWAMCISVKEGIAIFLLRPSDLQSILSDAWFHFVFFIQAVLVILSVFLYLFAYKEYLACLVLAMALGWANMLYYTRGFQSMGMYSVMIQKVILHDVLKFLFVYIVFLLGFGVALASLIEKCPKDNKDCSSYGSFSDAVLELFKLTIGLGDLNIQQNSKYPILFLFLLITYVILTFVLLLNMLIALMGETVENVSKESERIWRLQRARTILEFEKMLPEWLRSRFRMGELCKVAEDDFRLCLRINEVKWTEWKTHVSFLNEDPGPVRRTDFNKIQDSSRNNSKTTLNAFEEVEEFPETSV
Method: Test compounds were evaluated for ability to antagonize the activation of recombinant human TRPV3 using FLIPR® Tetra cellular screening. Specifically, on the day prior to the experiment recombinant HEK293 cells that stably express human TRPV3 were removed from tissue culture flasks and plated in growth medium at 20,000 cells/well into Poly-d-lysine coated black/clear 384-well Plate (Corning, 3845) using a Multidrop® dispenser (ThermoScientific, Waltham, Mass.). Prior to the start of the assay, the medium was removed by aspiration, and cells were loaded with 30 μL no-wash FLIPR® Calcium-4 dye (λEX=470-495 nm, λEM=515-575 nm; Molecular Devices, Sunnyvale, Calif.). The cells were then incubated for 90-120 minutes in the dark prior to addition of the test compound.
A double-addition protocol was used. The test compound (i.e., the TRPV3 antagonist) was added at the 10 second time point, followed by the addition of a TRPV3 agonist three minutes later. Each test compound evaluated was first dissolved in DMSO to prepare a 10 mM stock solution. A solution (5×) of the test compound was then prepared in DPBS (Dulbecco's Phosphate Buffered Saline) and 10 μL of that solution was added to the cells at a delivery rate of 40 μL/sec. The TRPV3 agonist used to activate human TRPV3 expressed by the […] was 2-aminoethoxy-diphenyl borate (2-APB; Tocris Cookson, Ellisville, Mo.) at 80 μM. Final assay volume was 50 μL. Total length of an experimental run was 10 minutes.
Changes in fluorescence were measured over time using the FLIPR® instrument. The intensity of the fluorescence was captured and digitally transferred to an interfaced computer. The maximum response minus minimum response was calculated and expressed as the percentage of the maximum 2-APB response in the absence of antagonist. The concentration of 2-APB corresponds to its EC80.
Table 1 reports the IC50 values measured for the test compounds as human TRPV3 antagonists. […] Actual measured values are shown parenthetically after the reported range. In most cases, the values reported are average values from at least two runs (i.e., n≧2).

[2] = In vitro human microsomal stability assay; type: in vitro ADME; conditions: for HUMAN […] (% REMAINING AFTER 30 MINUTES): 0.5 μM substrate, 0.25 mg/mL microsomal protein, pH 7.4, 37° C., NADPH; for HUMAN MICROSOMAL STABILITY (% REMAINING AFTER 30 MINUTES): 0.5 h, 0.5 μM, pH 7.4
Procedure, shortened: (§1)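 Rat (Sprague-Dawley) and human liver microsomes were incubated with test compound and NADPH at 37 °C. Time-zero samples also received NADPH.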

[3] = In vitro rat microsomal stability assay; type: in vitro ADME, rat (Sprague-Dawley); conditions: for RAT […] (% REMAINING AFTER 30 MINUTES): 0.5 μM substrate, 0.25 mg/mL microsomal protein, pH 7.4, 37° C., NADPH; for RAT MICROSOMAL STABILITY (% REMAINING AFTER 30 MINUTES): Sprague-Dawley, 0.5 h, 0.5 μM, pH 7.4
Procedure, shortened: as §1

[4] = range class, read-out: IC50 (reported range)
[5] = mostly average of n≧2, read-out: IC50 (actual measured value, shown parenthetically)

Row | Structure (SMILES) | IC50 [1, 4] | HUMAN MICROSOMAL STABILITY (% REMAINING AFTER 30 MINUTES) [2] | RAT MICROSOMAL STABILITY (% REMAINING AFTER 30 MINUTES) [3] | IC50 [1, 5] | HUMAN […] (% REMAINING AFTER 30 MINUTES) [2] | RAT […] (% REMAINING AFTER 30 MINUTES) [3]
1 | O[C@H](c1ccccn1)[C@]1(c2cccc(C(F)(F)F)c2)C[C@H](O)C1 (relative stereo) [Example 259, cis-3-[(S)-hydroxy(pyridin-2-yl)methyl]-3-[3-(trifluoromethyl)phenyl]-cyclobutanol] | 0.05 to 0.5 µM |  |  |  | 76% | 73%
2 | O[C@H](c1ccccn1)[C@]1(c2cccc(C(F)(F)F)c2)C[C@@H](O)C1 (relative stereo) [Example 264, trans-3-[(S)-hydroxy(pyridin-2-yl)methyl]-3-[3-(trifluoromethyl)phenyl]-cyclobutanol] | 0.05 to 0.5 µM |  |  |  | 56% | 59%
3 | OC(c1ccccn1)C1(C2=CCCOC2)CCC1 (single isomer, unassigned) [Example 269, [1-(5,6-dihydro-2H-pyran-3-yl)cyclobutyl](pyridin-2-yl)methanol] | 5.1 to 20 µM | 40% | 12% | 11.2 µM |  | 
4 | OC1CC(c2cc(C(F)(F)F)ccn2)(C(O)c2ccccn2)C1 (single isomer, unassigned) [Example 290] | > 20 µM | >85% | 71% |  |  | 
5 | CC1(O)CC(c2ccc(C(F)(F)F)cc2)([C@H](O)c2ccccn2)C1 (stereo in doubt) [Example 233, trans-3-[(S)-hydroxy(pyridin-2-yl)methyl]-1-methyl-3-[4-(trifluoromethyl)-phenyl]cyclobutanol] | 5.1 to 20 µM |  |  |  | >85% | 67%
6 | CC1(O)CC(c2cncc(C(F)(F)F)c2)([C@H](O)c2ccccn2)C1 (stereo in doubt) [Example 309, trans-3-[(S)-hydroxy(pyridin-2-yl)methyl]-1-methyl-3-[5-(trifluoromethyl)-pyridin-3-yl]cyclobutanol] | 1.1 to 5 µM |  |  |  | >85% | 
7 | CC(c1cccc(C(F)(F)F)c1)C1(C(O)c2ccccn2)CCC1 (centres unmarked) [Example 54, pyridin-2-yl(1-{1-[3-(trifluoromethyl)phenyl]ethyl}cyclobutyl)methanol] | > 20 µM |  | 0.21% |  |  | 
8 | NC1CCCC1C(O)C1(c2cccc(OC(F)(F)F)c2)CCC1 (centres unmarked) [Example 208, (2-aminocyclopentyl){1-[3-(trifluoromethoxy)phenyl]cyclobutyl}methanol] | 1.1 to 5 µM |  | 36% |  |  | 
9 | CC1(O)CC(c2cccc(OC(F)(F)F)c2)(C(O)c2ccccn2)C1 [Example 263, trans-3-[(S)-hydroxy(pyridin-2-yl)methyl]-1-methyl-3-[3-(trifluoromethoxy)-phenyl]cyclobutanol] | 1.1 to 5 µM |  | >85% |  |  | 

Further lines, with some results ahead:

Row | IC50 [1, 4] | HUMAN MICROSOMAL STABILITY (% REMAINING AFTER 30 MINUTES) [2] | RAT MICROSOMAL STABILITY (% REMAINING AFTER 30 MINUTES) [3] | IC50 [1, 5] | Structure (SMILES) | HUMAN […] (% REMAINING AFTER 30 MINUTES) [2] | RAT […] (% REMAINING AFTER 30 MINUTES) [3]
10 | 0.05 to 0.5 µM | >85% | 74% |  | OC1CC(c2ccc(Cl)c(Cl)c2)(C(O)c2ccccn2)C1 (single isomer, unassigned) [Example 118] |  | 
11 | 0.501 to 1 µM | >85% | 69% |  | OC1CC(c2ccc(Cl)c(Cl)c2)(C(O)c2ccccn2)C1 (single isomer, unassigned) [Example 119] |  | 
12 | 0.501 to 1 µM | 78% | 72% |  | CC1(O)CC(c2ccc(OC(F)(F)F)cc2)(C(O)c2ccccn2)C1 (single isomer, unassigned) [Example 134] |  | 
13 | 1.1 to 5 µM | 80% | 67% |  | CC1(O)CC(c2ccc(C(F)(F)F)cc2)(C(O)c2ccccn2)C1 (single isomer, unassigned) [Example 232] |  | 
14 | 0.501 to 1 µM | 54% | 41% |  | CC1(O)CC(c2cccc(C(F)(F)F)c2)(C(O)c2ccccn2)C1 (single isomer, unassigned) [Example 236] |  | 
15 | 1.1 to 5 µM | 17% | 0.48% | 3.94 µM | OC(c1ccccn1)C1(C2=COCCC2)CCC1 (single isomer, unassigned) [Example 270, [1-(3,4-dihydro-2H-pyran-5-yl)cyclobutyl](pyridine-2-yl)methanol] |  | 
16 | 1.1 to 5 µM | 0.38% | 0.48% |  | OC(c1ccccn1)C1(c2ccccc2F)CCC1 (centres unmarked) [Example 1, [1-(2-fluorophenyl)cyclobutyl](pyridin-2-yl)methanol] |  | 
17 | 0.05 to 0.5 µM | 17% | 0.64% |  | OC(c1ccccn1)C1(c2cccc(F)c2)CCC1 (centres unmarked) [Example 2, [1-(3-fluorophenyl)cyclobutyl](pyridin-2-yl)methanol] |  | 
18 | 0.501 to 1 µM | 28% | 3.8% |  | OC(c1ccccn1)C1(c2ccc(F)cc2)CCC1 (centres unmarked) [Example 3, [1-(4-fluorophenyl)cyclobutyl](pyridin-2-yl)methanol] |  | 
19 | 0.05 to 0.5 µM | 19% | 4.2% |  | OC(c1ccccn1)C1(c2ccc(F)c(F)c2)CCC1 (centres unmarked) [Example 4, [1-(3,4-difluorophenyl)cyclobutyl](pyridin-2-yl)methanol] |  | 
20 | 0.501 to 1 µM |  | 7.7% |  | OC(c1ncccn1)C1(c2cccc(OC(F)(F)F)c2)CCC1 (centres unmarked) [Example 37, pyrimidin-2-yl{1-[3-(trifluoromethoxy)phenyl]cyclobutyl}methanol] |  | 
21 | 0.05 to 0.5 µM |  | 9.5% |  | OC(c1ncccn1)C1(c2ccc(Cl)c(Cl)c2)CCC1 (centres unmarked) [Example 38, [1-(3,4-dichlorophenyl)cyclobutyl](pyrimidin-2-yl)methanol] |  | 
